Measured values as given in article PMC6136712, “Ex vivo drug sensitivity testing as a means for drug repurposing in esophageal adenocarcinoma” (PLoS ONE, 2018).
Structures can show the parent of a compound that is named as a salt.

Assays:
Type in all cases: cell-based, human
OE19 cells = assay: FDA library drug sensitivity testing (CellTiter-Glo, 72 h); conditions: sDSSmod = DSSmod (patient cells) - DSSmod (normal cells)
Excerpt: (§1) OE33, OE19 and SKGT2 human esophageal adenocarcinoma cell lines were obtained from the European Collection of Cell Culture ([…]). Flo1, EAC42 and EAC47 cells were established in the Capobianco Laboratory. EAC42 and EAC47 human esophageal adenocarcinoma cell lines are derived from patients undergoing surgery at the Miller School of Medicine, University of Miami. The Capobianco laboratory obtained written informed consent from all patients and approval from the Institutional Research Ethics Committee.
(§2) Drug sensitivity testing (DST) was performed as described previously. […] Individual drugs were dissolved in 100% DMSO and tested in duplicates starting at a maximal test concentration of 10μM then over a 20,000-fold concentration range to generate dose response curves. Wells with assay buffer containing DMSO served as negative controls. 1000 exponentially growing cells were seeded per well in 384-well micro-titer plates and incubated in the presence of compounds in a humidified environment at 37°C and 5% CO2. After 72 hours of treatment, cell viability was assessed by measuring ATP levels via bioluminescence (CellTiter-Glo, Promega) according to manufactures recommendations. Interpretation of curve parameters was performed according to the modified drug sensitivity scoring (DSSmod) function developed by Swords et al. […] Given in this way, the sDSSmod incorporated information on each drug’s potency, efficacy, effect range and therapeutic index, making it possible to prioritize compounds over multiple parameters using a single numerical metric. […] All calculations and scoring routines are implemented in MatLab and additional curve fitting and statistical analyses are performed in GraphPad prism.

OE33 cells = assay: as above; conditions: OE33; sDSSmod = DSSmod (patient cells) - DSSmod (normal cells)
Excerpt: as §1, §2

EAC42 cells = assay: as above; conditions: EAC42; sDSSmod = DSSmod (patient cells) - DSSmod (normal cells)
Excerpt: as §1, §2

EAC47 cells = assay: as above; conditions: EAC47; sDSSmod = DSSmod (patient cells) - DSSmod (normal cells)
Excerpt: as §1, §2

[1] = system: normal esophageal epithelium cell line EACN42; assay: FDA library drug sensitivity testing (CellTiter-Glo, 72 h), normal control cells; design: key to DSS: modified drug sensitivity score (DSSmod) from dose-response curve fit
Description: The normal esophageal epithelium cell line EACN42 was established in the Capobianco laboratory. The cell lines was derived from human normal epithelium and immortalized using HPV E6-E7.
as §2

SK-GT2 cells = assay: FDA library drug sensitivity testing (CellTiter-Glo, 72 h); conditions: SK-GT2; sDSSmod = DSSmod (patient cells) - DSSmod (normal cells)
Excerpt: as §1, §2

[2] = Homo sapiens, 72 h, EACN42 normal esophageal cells, cell viability (ATP), max test concentration 10μM
[3] = drug sensitivity score, EACN42 normal esophageal cells, 72 h
[4] = EACN42 normal esophageal cells, 72 h, cell viability (ATP), max test concentration 10μM

Compound | sDSSmod (OE19 cells) | sDSSmod (OE33 cells) | sDSSmod (EAC42 cells) | sDSSmod (EAC47 cells) | EC50 [1, 2] | DSS [1, 3] | sDSSmod (SK-GT2 cells) | EC50 [1, 4] | EC50 ([1]; Homo sapiens; EACN42 normal esophageal cells, 72 h, cell viability (ATP), max test concentration 10μM)
CN(Cc1cnc2nc(N)nc(N)c2n1)c1ccc(C(=O)N[C@@H](CCC(=O)O)C(=O)O)cc1 [Abitrexate, Methotrexate] | -21.1435 | 16.69 | 31.2825 | 35.78 | 40 nM | 21.14 | – | – | –
O=c1[nH]cc(F)c(=O)[nH]1 [Adrucil] | – | 10.56 | – | – | 920 nM | 4.47 | – | – | –
Nc1ncn([C@@H]2O[C@H](CO)[C@@H](O)[C@H]2O)c(=O)n1 [Azacitidine] | – | 23.96 | – | – | – | 0 | – | – | –
Nc1nc(O)c2[nH]nnc2n1 [Azaguanine-8] | – | 8.322 | 6.077 | – | – | 2.04 | – | – | –
Cn1cnc([N+](=O)[O-])c1Sc1ncnc2nc[nH]c12 [Azathioprine] | – | – | 6.181 | 7.783 | – | 0.02 | 5.733 | – | –
COc1cc2nccc(Oc3ccc(NC(=O)C4(C(=O)Nc5ccc(F)cc5)CC4)cc3)c2cc1OC [Cabozantinib] | – | 19.55 | – | – | – | 0 | – | – | –
CCCCCCNC(=O)n1cc(F)c(=O)[nH]c1=O [Carmofur] | – | 12.42 | – | – | 710 nM | 4.76 | – | – | –
Nc1nc(Cl)nc2c1ncn2[C@H]1C[C@H](O)[C@@H](CO)O1 [Cladribine] | – | – | 7.959 | 5.947 | – | 0.13 | – | – | –
Nc1nc(Cl)nc2c1ncn2[C@@H]1O[C@H](CO)[C@@H](O)[C@@H]1F [Clofarabine] | -19.554 | 16.0076 | -8.024 | -10.1317 | 70 nM | 19.89 | -9.559 | – | –
CC(C)c1nc(CN(C)C(=O)N[C@@H](CCN2CCOCC2)C(=O)N[C@H](CC[C@H](Cc2ccccc2)NC(=O)OCc2cncs2)Cc2ccccc2)cs1 [Cobicistat] | – | – | – | – | – | 0 | 7.685 | – | –
C[C@@H](Oc1cc(-c2cnn(C3CCNCC3)c2)cnc1N)c1c(Cl)ccc(F)c1Cl [Crizotinib] | – | 22.74 | – | – | 8030 nM | – | – | – | –
Nc1ccn([C@@H]2O[C@H](CO)[C@@H](O)[C@@H]2O)c(=O)n1 [Cytarabine] | – | 6.525 | – | – | > 10000 nM | 1.34 | – | – | –
C[C@H](NC(=O)Cc1cc(F)cc(F)c1)C(=O)N[C@H](C(=O)OC(C)(C)C)c1ccccc1 [DAPT] | – | – | – | – | – | 0 | 13.54 | – | –
C#Cc1cccc(Nc2ncnc3cc(OCCOC)c(OCCO)cc23)c1.Cl [Desmethyl Erlotinib] | – | 8.648 | – | – | – | 3.34 | 11.77 | – | –
O=c1oc2c(O)c(O)cc3c(=O)oc4c(O)c(O)cc1c4c23 [Ellagic acid] | – | 7.542 | – | – | – | 0 | – | – | –
COc1cccc2c1C(=O)c1c(O)c3c(c(O)c1C2=O)C[C@@](O)(C(=O)CO)C[C@@H]3O[C@H]1C[C@H](N)[C@@H](O)[C@H](C)O1 [Epirubicin Hydrochloride] | -11.4055 | 6.778 | – | – | 1200 nM | 18.98 | -9.535 | – | –
COc1cc([C@@H]2c3cc4c(cc3[C@@H](O[C@@H]3O[C@@H]5CO[C@@H](C)O[C@H]5[C@H](O)[C@H]3O)[C@H]3COC(=O)[C@H]23)OCO4)cc(OC)c1O [Etoposide] | – | 6.55 | 5.049 | – | > 10000 nM | 4.68 | – | – | –
CO[C@H]1C[C@@H]2CC[C@@H](C)[C@@](O)(O2)C(=O)C(=O)N2CCCC[C@H]2C(=O)O[C@H]([C@H](C)C[C@@H]2CC[C@@H](OCCO)[C@H](OC)C2)CC(=O)[C@H](C)/C=C(\C)[C@@H](O)[C@@H](OC)C(=O)[C@H](C)C[C@H](C)/C=C/C=C/C=C/1C [Everolimus] | – | -5.493 | – | -5.697 | 9000 nM | 7.57 | -5.054 | – | –
O=c1[nH]c(=O)n([C@H]2C[C@H](O)[C@@H](CO)O2)cc1F [Floxuridine] | – | 13.67 | 40.61 | 35.54 | 830 nM | 4.9 | – | – | –

Compound | sDSSmod (OE19 cells) | sDSSmod (OE33 cells) | sDSSmod (EAC42 cells) | sDSSmod (EAC47 cells) | EC50 [1, 2] | DSS [1, 3] | sDSSmod (SK-GT2 cells) | EC50 [1, 4] | EC50 ([1]; Homo sapiens; EACN42 normal esophageal cells, 72 h, cell viability (ATP), max test concentration 10μM)
Nc1nc(F)nc2c1ncn2[C@@H]1O[C@H](CO)[C@@H](O)[C@@H]1O [Fludarabine] | -20.7262 | -9.248 | -42.0707 | -42.19 | 70 nM | 42.19 | -12.4173 | – | –
CNC(=O)CN(CCN(CCN(CC(=O)[O-])CC(=O)NC)CC(=O)[O-])CC(=O)[O-].[Gd+3] [Gadodiamide] | – | 29.62 | – | – | – | 0 | – | – | –
Nc1ccn([C@@H]2O[C@H](CO)[C@@H](O)C2(F)F)c(=O)n1 [Gemzar] | -11.949 | 11.79 | 17.37 | 10.03 | – | 16.2 | – | 770 nM | –
O=c1c(-c2ccc(O)cc2)coc2cc(O)cc(O)c12 [Genistein] | – | 5.079 | – | – | > 10000 nM | 0.04 | 5.117 | – | –
C=CC(=O)N1CCC[C@@H](n2nc(-c3ccc(Oc4ccccc4)cc3)c3c(N)ncnc32)C1 [Ibrutinib] | 31.18 | – | – | – | – | 0 | 39.31 | – | –
CC(=O)[C@]1(O)Cc2c(O)c3c(c(O)c2[C@@H](O[C@H]2C[C@H](N)[C@H](O)[C@H](C)O2)C1)C(=O)c1ccccc1C3=O [Idarubicin HCl] | -22.4296 | 15.06 | 6.506 | – | 710 nM | 26.1 | -17.1644 | – | –
CCc1c2c(nc3ccc(OC(=O)N4CCC(N5CCCCC5)CC4)cc13)-c1cc3c(c(=O)n1C2)COC(=O)[C@]3(O)CC.Cl.O.O.O [Irinotecan HCl Trihydrate] | -12.0524 | 12.07 | -6.563 | -6.3823 | – | 13.38 | -7.5553 | 1570 nM | –
CCc1c2c(nc3ccc(OC(=O)N4CCC(N5CCCCC5)CC4)cc13)-c1cc3c(c(=O)n1C2)COC(=O)[C@]3(O)CC [Irinotecan] | -6.34 | 5.246 | – | -5.5855 | 5110 nM | 6.99 | -5.574 | – | –
NS(=O)(=O)OC[C@@H]1C[C@@H](n2ccc3c(N[C@H]4CCc5ccccc54)ncnc32)C[C@@H]1O [MLN-4924] | – | – | 17.05 | 10.87 | > 10000 nM | 0.51 | – | – | –
S=c1[nH]cnc2nc[nH]c12 [Mercaptopurine] | – | – | 10.48 | 10.9 | > 10000 nM | 0.05 | – | – | –
O=S(=O)(O)CCS [Mesna] | – | – | – | – | – | 0 | 8.021 | – | –
Nc1nc2[nH]cc(CCc3ccc(C(=O)N[C@@H](CCC(=O)O)C(=O)O)cc3)c2c(=O)[nH]1 [Pemetrexed] | -15.3102 | 25.32 | 14.62 | 14.75 | 60 nM | 16.15 | – | – | –
Cc1ccc(C(=O)Nc2ccc(CN3CCN(C)CC3)c(C(F)(F)F)c2)cc1C#Cc1cnc2cccnn12 [Ponatinib] | -11.756 | -6.155 | -11.7731 | -11.7731 | – | 11.77 | -11.7711 | – | 2810 nM
COc1ccccc1OCC(O)CN1CCN(CC(=O)Nc2c(C)cccc2C)CC1 (stereo not drawn) [Ranolazine] | – | 25.89 | – | – | – | 0 | – | – | –
Nc1nc2nc[nH]c2c(=S)[nH]1 [Thioguanine] | – | 42.58 | 9.961 | 8.364 | 3160 nM | 4.62 | 6.838 | – | –
CN(C)CCOc1ccc(/C(=C(/CCCl)c2ccccc2)c2ccccc2)cc1 [Toremifene Citrate] | – | 23.6335 | – | – | – | 0 | – | – | –
COc1cc2c(Nc3ccc(Br)cc3F)ncnc2cc1OCC1CCN(C)CC1 [Vandetanib] | 7.027 | 8.255 | – | – | 4460 nM | 0.13 | 7.721 | – | –
Bacitracin zinc | – | 17.07 | – | – | – | 0 | – | – | –
